Entries after “also recorded” stand apart in the source; their conditions may differ.
What was measured:
ATase in WiDr cells = molecular target: T1, ATase in WiDr cells (Homo sapiens, UniProt P16455); assay: Inactivation of ATase activity in mammalian cells: WiDr; type: cell-based; details: read-out: Inactivation of ATase in Mammalian Cells I50
T1 construct: WiDr cells are a human colon carcinoma cell line; endogenous in cells; host or cells: WiDr
T1 sequence (P16455 1-207): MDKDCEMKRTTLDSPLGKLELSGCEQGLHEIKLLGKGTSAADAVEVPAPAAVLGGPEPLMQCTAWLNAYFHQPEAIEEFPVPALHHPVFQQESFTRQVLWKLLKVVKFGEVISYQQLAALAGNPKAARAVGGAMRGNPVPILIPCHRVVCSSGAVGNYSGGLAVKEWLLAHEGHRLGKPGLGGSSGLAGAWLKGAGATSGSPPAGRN
Description: Mammalian cells were cultured under standard conditions. For example, Raji (a human lymphoblastoid cell line from a Burkitt's lymphoma) cells were grown in suspension culture in RPMI medium supplemented with 10% horse serum. A375M cells are human melanoma cells from which the xenografts described below were established following subcutaneous injection into nude mice: WiDr cells are a human colon carcinoma cell line: Hamster+120 cells are a mitozolomide-selected subline of a Chinese hamster lung fibroblast V79 cell line called RJKO: Yoshida cells are a rat carcinosarcoma cell line and YRbus is a busulphan resistant subline thereof: XP cells are an SV40-transformed fibroblast cell line originally from the skin of a Xeroderma piamentosum patient, pHMGhAT2b cells are a clone of these cells that have been transfected with a mammalian cell expression vector containing the human ATase cDNA and pHMGla cells are a clone that have been transfected with the expression vector only (i.e. one not containing the human ATase cDNA). Cell pellets were resuspended in cold (4° C.) buffer I containing 2 μg/ml leupeptin and sonicated for 10 seconds at 12μ peak to peak distance. After cooling in ice, the cells were sonicated for a further 10 seconds at 18μ. […]

[1] = tested on: human bone marrow granulocyte macrophage colony forming cells; assay: Sensitization of bone marrow cells to temozolomide (GM-CFC assay); type: cell-based; details: for sensitization of human bone marrow cells to temozolomide, in words: 10 μM inactivator
Description: (§1) For the granulocyte/macrophage colony-forming cell (GM-CFC) assay primary human bone marrow samples were obtained from patients undergoing cardiothoracic surgery. […] The colonies represented precursor cells of the granulocyte/macrophage lineage (huGM-CFC). Survival was expressed as a % of the number of colonies at zero dose temozolomide.

[2] = Sensitivity of mammalian cells to the inactivators alone: XP cells; type: cell-based, human; details: human, xp cells; FIG. 6; read-out: dose required for growth inhibition relative to that required for ATase inactivation
Description: (§2) In order to assess the effects on cell growth alone, Xeroderma pigmentosum cells and Chinese Hamster V79 cells were exposed to increasing concentrations (up to 600 μM) of selected inactivators for 2 h at 37°. In some cases, the inactivators were allowed to undergo hydrolysis at 37° C. for 20 hours and then added to Raji cells in order to assess the extent to which the decomposition products of the agents might inhibit cell growth. After 6 days the extent of cell growth was determined as described above.

[3] = tested on: Xeroderma pigmentosum cells; assay: as above; type: cell-based, human; details: inactivator alone (FIG. 6)
Description: as §2

[4] = tested on: Chinese Hamster V79 cells; assay: Sensitivity of mammalian cells to the inactivators alone: V79 cells; type: cell-based; details: inactivator alone, up to 600 μM
Description: as §2

DBA2 mice = assay: Toxicity of inactivators in combination with temozolomide in non-tumour-bearing DBA2 mice; type: in vivo, mouse; details: 20 mg/kg inactivator + temozolomide 100 mg/kg i.p., four consecutive days (FIG. 25)
Description: FIG. 25 is a graph showing the survival of animals in a comparative test of toxicity of BeG, B.4205 and B.4280 in combination with temozolomide (TZ) in non-tumour-bearing DBA, mice. Animals were given temozolomide alone (100 mg/kg i.p) or BeG (10 or 20 mg/kg i.p.), B.4205 (10 or 20 mg/kg i.p.) or B.4280 (10 or 20 mg/kg i.p.) followed one hour later by temozolomide (100 mg/kg i.p.) on four consecutive days. The vehicles were corn oil for the inactivators and PBS (20% DMSO) for temozolomide.

A375 tumour xenografts = assay: Xenograft study: sensitization of A375 tumour xenografts to BCNU; type: in vivo, nude mice; details: inactivator 30 or 60 mg/kg + BCNU 10-25 mg/kg i.p. (FIGS. 9-13)
Description: OX6 OPT, England (OLAC mice). […] For this reason lower doses were administered. Cells (10^6) in 100 μl of PBS were injected subcutaneously into the right-hand flank of 8-10 week old nu/nu athymic mice. […] The experimental animals were also weighed every 1-2 days. Measurements continued until tumours in the control animals reached the maximum allowable volume (i.e. 1 cm×1 cm×1 cm).

bone marrow cells = assay: Inactivator toxicity in bone marrow cells (GM-CFC colonies, inactivator alone); type: cell-based, human; details: 10 μM, 5 patients (Table 7)
Description: as §1

nude mice = assay: Survival of xenograft-bearing nude mice given inactivator plus temozolomide; type: in vivo, mouse
Description: Mice were treated with the inactivator as a suspension in corn oil by intraperitoneal injection (i.p.) or by oral gavage (p.o.) 60 mins prior to temozolomide (100 mg/kg in 20% DMSO in phosphate-buffered saline) which was always given by intraperitoneal injection: this schedule was repeated on days 1 to 5 inclusive. Controls received vehicle alone, inactivator alone or temozolomide alone.
The mice in the tests shown in FIGS. 19-24 were Swiss mouse derived athymic male mice ([…]) from ZENECA Pharmaceuticals, Mereside, Alderley Park, Macclesfield, Cheshire SK10 4T6, England.

ATase = ATase activity in tissues of nude mice after inactivator; type: in vivo, mouse; details: 10 mg/kg i.p., 24 and 48 hours (Table 10)
Description: ATase substrate DNA was prepared by incubation of purified calf thymes DNA with N-[^3 H]-methyl-N-nitrosuourea (18.7 Ci/mmole, Amersham International). Cell or tissue extracts (see 4.4) were incubated with [^3 H]-methylated-DNA substrate (100 μl containing 6.7 μg of DNA and 100 fmol of O^6 -[^3 H]methylguanine) at 37° C. for 60 mins. Following acid hydrolysis of the DNA as precviously described^21the [^3 H]-methylated protein was recovered and quantitated by liquid scintillation counting. […]
The mice in the tests shown in FIGS. 17 and 18 were BALB-C derived athymic male mice (nu/nu athymic) from the in-house breeding colony at the Paterson Institute for Cancer Research as described above (Animal Services Unit-ASU Mice).
Animals were given a single dose of B.4280 (10 mg/kg i.p.) and sacrificed

Which results are given for `Nc1nc(OCc2cccs2)c2nc[nH]c2n1` [B.4205, 0^6 -thenylguanine]?
IC50 (ATase in WiDr cells): 20 nM; sensitization of human bone marrow cells to temozolomide, in words ([1]; patient D (FIG. 14)): no differential; sensitization of human bone marrow cells to temozolomide, in words ([1]; patients C & E (FIG. 14)): smaller sensitization effect than O^6 -benzylguanine; sensitization of GM-CFC to cytotoxic effects of temozolomide, in words ([1]; four different patient samples, 10 μM (FIG. 23)): only occurred in one patient; sensitization of GM-CFCs to toxic effects of temozolomide, in words ([1]; three human bone marrow samples (FIG. 14)): little or no sensitization; selectivity ratio [2]: ≥ 100; growth inhibition / toxicity to XP cells, in words [3]: more sensitive than V79 cells; also recorded: toxic; growth inhibition / toxicity to V79 cells, in words [4]: no such effects were seen; acute toxicity in combination with temozolomide in DBA2 mice, in words (DBA2 mice): less acutely toxic than BeG; sensitization of A375 xenografts to BCNU (tumour volume), in words (A375 tumour xenografts): comparable to O^6 -benzylguanine (BeG) in reducing tumour volume; toxic effect of inactivator alone on bone marrow cells, in words (bone marrow cells): comparable to those for O^6 -benzylguanine

For `Nc1nc(OCc2cc(Br)cs2)c2nc[nH]c2n1` [B.4280, O^6-(4-bromothenyl)guanine], which “toxicity of oral combination versus i.p. route, in words” value (nude mice; with temozolomide (FIG. 24B)) is on record?
The value was “marginally less toxic than the i.p. route”.

And the “toxicity at equi-effective doses for tumour growth inhibition, in words” value (nude mice; with temozolomide (FIGS. 21B, 22B))?
Its value is “less toxic than B.4205”.

And the “acute toxicity in combination with temozolomide in DBA2 mice, in words” value (DBA2 mice)?
Its value is “less acutely toxic than BeG; also recorded: less acutely toxic than B.4205”.

And the “recovery of ATase activity in tissues, in words” value (ATase)?
Its value is “activity in brain, testis and bone marrow was near to control levels by 24 hours whereas lung and spleen activity had not completely recovered by 48 hours”.

Reference: patent publication US6043228A, “O^6 -substituted guanine derivatives, a process for their preparation and their use in treating tumor cells” (Cancer Research Campaign Technology Limited, priority 1993, dated 2000)
